Tests used:
[1] = logP by HPLC on reversed-phase column (C18), EEC Directive 79/831 Annex V.A8; format: physicochemical; conditions: for Log P: pH 2.7
Description: The logP values reported in the preparation examples and tables above are determined in accordance with EEC Directive 79/831 Annex V.A8 by means of HPLC (High Performance Liquid Chromatography) on a reversed-phase column (C18). Temperature: 43° C. […] Calibration takes place using unbranched alkan-2-ones (having 3 to 16 carbon atoms) of which the logP values are known (logP values determined on the basis of the retention times, by linear interpolation between two successive alkanones). The lambda-max values were determined on the basis of the UV spectra from 200 nm to 400 nm in the maxima of the chromatographic signals.

[2] = tested on: Alternaria solani; assay: Alternaria test (tomato)/protective; format: in vivo; conditions: young tomato plants, protective spray, 1500 ppm, evaluation 7 days following inoculation
From the text: Alternaria Test (Tomato)/Protective • Solvent: 49 parts by weight of N,N-dimethylformamide • Emulsifier: 1 part by weight of alkylaryl polyglycol ether An appropriate preparation of active compound is produced by mixing 1 part by weight of active compound with the stated amounts of solvent and emulsifier and diluting the concentrate with water to the desired concentration. To test for protective activity, young tomato plants are sprayed with the preparation of active compound at the stated application rate. […] Subsequently the plants stand at 96% relative humidity and a temperature of 20° C. After 7 days following inoculation, evaluation takes place.

[3] = tested on: Phytophthora infestans; format: in vivo; conditions: young tomato plants, protective spray, 1500 ppm, evaluation 7 days following inoculation
[4] = tested on: Puccinia recondita; assay: Puccinia test (wheat)/protective; format: in vivo; conditions: young wheat plants, protective spray, 1500 ppm, evaluation 7-9 days following inoculation
From the text: Puccinia Test (Wheat)/Protective • Solvent: 49 parts by weight of N,N-dimethylformamide • Emulsifier: 1 part by weight of alkylaryl polyglycol ether An appropriate preparation of active compound is produced by mixing 1 part by weight of active compound with the stated amounts of solvent and emulsifier and diluting the concentrate with water to the desired concentration. To test for protective activity, young wheat plants are sprayed with the preparation of active compound at the stated application rate. […] Subsequently the plants stand at 80% relative humidity and at a temperature of 20° C. After 7-9 days following inoculation, evaluation takes place.

[5] = tested on: Plasmopara viticola; assay: Plasmopara test (grapevine)/protective; format: in vivo; conditions: young grapevine plants, protective spray, 250 ppm, evaluation 6 days following inoculation
[6] = tested on: Venturia inaequalis; assay: Venturia test (apple)/protective; format: in vivo; conditions: young apple plants, protective spray, 250 ppm, evaluation 10 days following inoculation
Description: Venturia Test (Apple)/Protective […] An appropriate preparation of active compound is produced by mixing 1 part by weight of active compound with the stated amounts of solvent and emulsifier and diluting the concentrate with water to the desired concentration. To test for protective activity, young plants are sprayed with the preparation of active compound at the stated application rate. […] Subsequently the plants are placed in a greenhouse at approximately 21° C. and approximately 90% humidity. After 10 days following inoculation, evaluation takes place.

SMILES | Log P [1] | Efficacy in % [2] [%] | Efficacy in % [3] [%] | Efficacy in % [4] [%] | Efficacy in % [5] [%] | Efficacy in % [6] [%] | chromatographic logP ([1]; HPLC, C18, 43° C., acidic range pH 2.7 (0.1% aqueous formic acid/acetonitrile), read-out: Log P)
CCn1c(=O)c2c(c(=O)n1CC)SC(C#N)=C(C#N)S2 [Compound 3] | 2.05 | 86 | 75 | 95 |  |  | 
Cn1c(=O)c2c(c(=O)n1C)SC(C#N)=C(C#N)S2 [Compound 1] | 1.39 |  |  | 90 |  |  | 
CCCn1c(=O)c2c(c(=O)n1CCC)SC(C#N)=C(C#N)S2 [Compound 4] | 2.80 | 93 | 94 | 95 |  |  | 
CCCn1c(=O)c2c(c(=O)n1CC)SC(C#N)=C(C#N)S2 [Compound 5] | 2.46 | 93 | 94 | 95 | 95 | 95 | 
CCCn1c(=O)c2c(c(=O)n1C)SC(C#N)=C(C#N)S2 [Compound 7] | 2.08 | 93 | 88 | 80 |  |  | 
N#CC1=C(C#N)Sc2c(c(=O)n3n(c2=O)CCC3)S1 [Compound 8] | 1.20 | 86 | 75 | 95 |  |  | 
N#CC1=C(C#N)Sc2c(c(=O)n3n(c2=O)CCCC3)S1 [Compound 2, 5,12-dioxo-5,7,8,9,10,12-hexahydro[1,4]dithiino[2,3-d]pyridazino[1,2-a]pyridazine-2,3-dicarbonitrile] |  | 93 | 88 | 95 | 100 | 89 | 1.74
CCn1c(=O)c2c(c(=O)n1C)SC(C#N)=C(C#N)S2 [Compound 9] | 1.72 | 86 | 94 | 95 | 93 | 86 | 
Cn1c(=O)c2c(c(=O)n1C)Sc1c(c(=O)n(C)n(C)c1=O)S2 [Compound 10] | 0.74 |  |  |  |  |  | 
N#CC1=C(C#N)Sc2c(c(=O)n3n(c2=O)CCOCC3)S1 [Compound 6] | 1.51 | 86 | 75 | 95 |  |  | 
